For orientation: MIC means the lowest concentration that inhibits growth of the organism. A word on the CC50: it is the concentration that lowers cell viability or growth by half. Low values mean harm at low concentration, high ones better tolerance by the cells.

Data set [1] concerns C. difficile VPI 10463. Kind of data set: MIC determination, agar dilution, C. difficile. The conditions noted are these: Clostridioides difficile, VPI10463, 18 h, read-out: MIC C. difficile. It counts as cell-based, Clostridium difficile.
Data set [2] concerns E. coli. Briefly: MIC against E. coli. It counts as cell-based. The note with it: Escherichia coli.
In data set [3] the test system is C. jejuni strain H840. Kind of data set: MIC determination, liquid microdilution, C. jejuni. It counts as cell-based. The note with it: Campylobacter jejuni, H840, 27 h, read-out: MIC C. jejuni.
Data set [4] has as its system H. pylori strain 26695. Briefly: MIC determination, liquid microdilution, H. pylori. Type of data set: cell-based. The conditions noted are these: Helicobacter pylori, 26695, 27 h, read-out: MIC H. pylori. A general note: Broth dilution looks for growth in wells or tubes with falling amounts of substance.
Data set [5] concerns S. epidermidis. Kind of data set: MIC determination, liquid microdilution, S. epidermidis. Type of data set: cell-based. The conditions noted are these: Staphylococcus epidermidis, read-out: MIC S. epidermidis.
The test system of data set [6] is H. pylori PFOR enzyme. Briefly: Direct PFOR enzyme assay. Type of data set: biochemical. The conditions noted are these: [Drug] = 40 μM.
The nature of data set [7]: Human foreskin cell toxicity. It counts as cell-based. The note with it: human, human foreskin cells.
For data set [8], the system named is S. aureus (MRSA). Kind of data set: MIC determination, liquid microdilution, S. aureus. It counts as cell-based. The conditions noted are these: Staphylococcus aureus, read-out: MIC S. aureus (MRSA).
Data set [9] concerns Human foreskin cells. Briefly: Human foreskin cell toxicity. Type of data set: cell-based.

The structures appear in SMILES notation. In brackets after ≈: the same amount, converted by molar mass. Read-outs that look alike come from different tables or passages of the source. Marks after values point to notes of the source that are not given here.

Take `CC(=O)Oc1ccccc1C(=O)Nc1ncc([N+](=O)[O-])s1` [Nitazoxanide, reference compound]: the MIC in data set [1] is 1.2 µM (≈ 0.369 µg/mL); in [2] (read-out: E. coli MIC), more than 104 µM; in data set [2] (read-out: E. coli MIC, stated in text), more than 32 µg/mL; in data set [3], 39.1 µM (≈ 12 µg/mL); in [4] it was 13 µM (≈ 3.99 µg/mL); in data set [5] it was 52.1 µM (≈ 16 µg/mL). In addition, the MIC in data set [8] was 39.1 µM (≈ 12 µg/mL). For the same compound, the “PFOR Inhibition” value is 54 ± 7% in data set [6] (listed as 1, 40 µM) and “[c] For PFOR inhibition assays, drug concentration was fixed at 40 μM which bench marks NTZ at ~50% inhibition” in data set [6] (listed as NTZ, 40 µM). The CC50 at 48 h in data set [7] is more than 52.1 µM.
For the compound `O=C(Nc1ncc([N+](=O)[O-])s1)c1cccnc1F` [Analogue 59, 2-Fluoro-N-(5-nitrothiazol-2-yl)nicotinamide], the MIC in data set [1] was 2.8 µM (≈ 0.751 µg/mL); in data set [5] it was 119 µM (≈ 32 µg/mL); in data set [8] it was 119 µM (≈ 32 µg/mL). Also, the “PFOR Inhibition” value in data set [6] was 61 ± 13%. The CC50 at 48 h in data set [7] is more than 59.7 µM.
Regarding `O=C(Nc1ncc([N+](=O)[O-])s1)c1ccco1` [Analogue 61, N-(5-Nitrothiazol-2-yl)furan-2-carboxamide], the MIC in data set [1] turned out to be 2.4 µM (≈ 0.574 µg/mL); in [3], 8.4 µM (≈ 2.01 µg/mL); in data set [4] it was 1 µM (≈ 0.239 µg/mL); in data set [5], 66.9 µM (≈ 16 µg/mL); in data set [8] it was 50.2 µM (≈ 12 µg/mL). In data set [6], the “PFOR Inhibition” value was 42 ^b %. The compound also returned a CC50 at 48 h in [7] of 66.9 µM.
In the case of `CCCCCC(=O)Nc1ncc([N+](=O)[O-])s1` [Analogue 50, N-(5-Nitrothiazol-2-yl)hexanamide], the MIC in data set [1] was 8.2 µM (≈ 1.99 µg/mL); in data set [3], 2.1 µM (≈ 0.511 µg/mL); in data set [4], 0.5 µM (≈ 0.122 µg/mL); in data set [8], 132 µM (≈ 32 µg/mL). For the same compound, the “PFOR Inhibition” value in data set [6] is 64 ± 6 ^b %. The compound also showed a CC50 at 48 h in data set [7] of more than 65.8 µM.
For `O=C(Nc1ncc([N+](=O)[O-])s1)c1ccc(Cl)c(C(F)(F)F)c1` [Analogue 41, 4-Chloro-N-(5-nitrothiazol-2-yl)-3-(trifluoromethyl)benzamide], the minimum inhibitory concentration (MIC) in data set [1] came to 1.4 µM (≈ 0.492 µg/mL); in data set [3] it was 2.8 µM (≈ 0.985 µg/mL); in [4] it was 2.8 µM (≈ 0.985 µg/mL); in data set [5], 2.8 µM (≈ 0.985 µg/mL); in data set [8], 2.8 µM (≈ 0.985 µg/mL). Also, the “PFOR Inhibition” value in [6] came out at 33 ± 1%. In data set [7], this compound registered a CC50 at 48 h of more than 45.5 µM.
Consider `O=C(Nc1ncc([N+](=O)[O-])s1)c1ccsc1` [Analogue 74, N-(5-Nitrothiazol-2-yl)thiophene-3-carboxamide], for which the MIC in [1] is 2.9 µM (≈ 0.74 µg/mL); in data set [3], 5.9 µM (≈ 1.51 µg/mL); in data set [4] it was 0.7 µM (≈ 0.179 µg/mL); in data set [5], 15.7 µM (≈ 4.01 µg/mL); in [8] it was 23.5 µM (≈ 6 µg/mL). Moreover, the “PFOR Inhibition” value in [6] is 58.5 ± 3.5 ^b %. For the same compound, the CC50 at 48 h in [7] is more than 62.7 µM.
`O=C(Nc1ncc([N+](=O)[O-])s1)c1cc(C(F)(F)F)cc(C(F)(F)F)c1` [Analogue 38, N-(5-Nitrothiazol-2-yl)-3,5-bis(trifluoromethyl)benzamide]: the MIC in data set [3] was determined as 41.5 µM (≈ 16 µg/mL); in [4], 5.2 µM (≈ 2 µg/mL); in data set [5], 1.9 µM (≈ 0.732 µg/mL); in data set [8], 2.6 µM (≈ 1 µg/mL). Moreover, the “toxicity to human foreskin cells (in words)” value in data set [9] was “particularly toxic”. This compound also gave a CC50 at 48 h in [7] of 10.4 µM.
Take `O=C(Nc1ncc([N+](=O)[O-])s1)c1cccc(C(F)(F)F)c1` [Analogue 23, N-(5-Nitrothiazol-2-yl)-3-(trifluoromethyl)benzamide]: the MIC in data set [1] was 0.5 µM (≈ 0.159 µg/mL); in data set [3], 4.7 µM (≈ 1.49 µg/mL); in data set [4], 3.5 µM (≈ 1.11 µg/mL); in data set [5], 12.6 µM (≈ 4 µg/mL). Further, the “PFOR Inhibition” value in data set [6] stood at 41.5 ± 5.5%. Besides, the “toxicity to human foreskin cells (in words)” value in data set [9] is “not toxic”. For the same compound, in data set [7], the CC50 at 48 h was more than 50.4 µM.

The values are drawn from PMC3089805 (Chemmedchem, 2010).
